Experimental findings from article PMC9855333, “1-(Arylsulfonyl-isoindol-2-yl)piperazines as 5-HT6R Antagonists: Mechanochemical Synthesis, In Vitro Pharmacological Properties and Glioprotective Activity” (Biomolecules, 2022) are described below.

A word on the IC50: it is the concentration at which inhibition is half-maximal. A high value points to lower potency.

Data set [1] concerns 5-HT6R-operated Cdk5 signaling. The experiment in a line: Cdk5-dependent neurite growth in NG108-15 cells transiently expressing 5-HT6R. Conditions: NG108-15 cells expressing 5-HT6R; for neurite length: treatment for 24 h (legend says 48 h), vehicle 16.95 ± 1.5 μm. The data set is classed as cell-based. Here is the method: NG108-15 cells were transfected with plasmids encoding either cytosolic GFP or a GFP-tagged 5-HT6R and grown on glass coverslips for 6 h. Then, cells were treated with either vehicle or the evaluated compounds. Neurite growth was measured on cells imaged using an AxioImagerZ1 microscope equipped with epifluorescence (Zeiss) using the Neuron J plugin of the ImageJ software (NIH). A detailed description is reported in the Supporting Information.
3. Procedure for evaluation of the effect of tested compounds on Cdk5-dependent neurite
In line with previously reported methods, NG108-15 cells were transfected with plasmids encoding either cytosolic GFP or a GFP-tagged 5-HT6R in suspension using Lipofectamine 2000 (Life technologies) and plated on glass coverslips. Six hours after transfection, cells were treated with either DMSO (control), 3e, 3f and 3g or SB-258585 for 48 h. Cells were fixed in 4% paraformaldehyde (PFA) supplemented with 4% sucrose for 10 min. PFA fluorescence was quenched by incubating the cells in PBS containing 0.1 M glycine, prior to mounting in Prolong Gold antifade reagent (Thermo Fisher Scientific). Cells were imaged using an AxioImagerZ1 microscope equipped with epifluorescence (Zeiss), using a 20 × objective for cultured cells, and neurite length was assessed using the Neuron J plugin of the ImageJ software (NIH).

A short description of data set [2]: Cytotoxicity, MTT test, C8-D1A. The conditions noted are these: mouse, C8-D1A cells (mouse astrocytes). The data set is classed as cell-based. Here is the method:
Hepatotoxicity, neurotoxicity, and glial cytotoxicity were investigated using the following cellular models: human hepatocellular carcinoma (HepG2), human neuroblastoma (SHSY-5Y), and mouse astrocytes (C8-D1A), all from ATCC (American Type Culture Collection, Manassas, VA, USA). Cells were cultured in appropriate culture media recommended by ATCC supplemented with 10% fetal bovine serum (FBS; Gibco, Life Technologies, Carlsbad, CA, USA) and 1% antibiotic mixture (Gibco, Life Technologies, Carlsbad, CA, USA). Cells were cultured at standard conditions (5% CO2, 95% humidity, 37 °C). For cytotoxicity experiments, cells were seeded into 96 well plates at an initial density of 2000 cells/well. After overnight incubation, cells were treated with 3e, 3f, and 3g in a concentration range of 0.78–50 µM for 48 h; then, an MTT assay was performed as described previously. Briefly, following cell exposure, 10 µL of MTT reagent was added to each well. After the next 4 h, the medium was aspirated, and formazan produced in cells appeared as dark crystals in the bottom of the wells. Next, 100 µL DMSO was added to each well. Then, the optical density of the solution (OD) at 570 nm was determined on a plate reader (Spectra Max iD3, Molecular Devices, San Jose, CA, USA). The experiments were run three times in triplicates.
Background: Tetrazolium dyes change colour on reduction, which living cells bring about.

For the compound `O=S(=O)(c1cccc(N2CCNCC2)c1)N1Cc2cccc(Br)c2C1` [3g, 4-Bromo-2-{[3-(piperazin-1-yl)phenyl]sulfonyl}isoindoline], the “reduction in neurite growth” value in data set [1] (vs vehicle-treated cells) is 50%. Moreover, in data set [1], the neurite length was 8.08 ± 0.84 μm. In addition, the “functional profile at the 5-HT6R-elicited Cdk5 pathway” value in data set [1] (neurite growth) was “potent inverse agonist”. In addition, the IC50 at 48 h in data set [2] is more than 50 µM.

Take `O=S(=O)(c1cccc(N2CCNCC2)c1)N1Cc2ccccc2C1` [3e, 2-{[3-(Piperazin-1-yl)phenyl]sulfonyl}isoindoline]: the neurite length in data set [1] is given as 11.81 ± 2.61 μm. Besides, the IC50 at 48 h in data set [2] is more than 50 µM.

Regarding `O=S(=O)(c1cccc(N2CCNCC2)c1)N1Cc2cccc(Cl)c2C1` [3f, 4-Chloro-2-{[3-(piperazin-1-yl)phenyl]sulfonyl}isoindoline], in data set [1], the neurite length was found to be 10.92 ± 0.89 μm. In data set [2], this compound came in with an IC50 at 48 h of more than 50 µM.
